Experimental data as given in patent US8455479B2, “Heterocyclic compounds” (Panacea Biotec Limited, priority 2008, dated 2013).

Columns and labels:
C57BL/6J mice = experiment: Oral glucose tolerance test (OGTT) in C57BL/6J mice; assay type: in vivo; conditions: for ED50 (mg/kg p.o.): OGTT in C57BL/6J mice; for % Reduction in glucose excursion: OGTT in C57BL/6J mice at 3 mg/kg body weight, glucose 2 g/kg p.o., glucose AUC
Experimental: Oral Glucose Tolerance Test (OGTT) in C57BL/6J Mice
The oral glucose tolerance test (OGTT) measures the body's ability to use glucose that is the body's main source of energy. OGTT serves as a primary in-vivo screen to select efficacious test compounds for their antidiabetic activity. Compounds were formulated in 0.25% CMC with a drop of tween 80 (optional). C57BL/6J male mice (8-9 weeks) were fasted overnight and randomized into different groups (n=6) on body weigh basis. At T−15 min blood was collected from each group for glucose estimation. At T0 compounds or vehicle were administered with simultaneous administration of glucose (2 g/kg p.o.) to each group. RO water was administered to no glucose control group. Blood samples were collected from retro-orbital plexus at 15, 30, 60 and 120 min post dosing for glucose estimation. The AUC for glucose was calculated to get the reduction in glucose excursion.

DPP-IV = DPP-IV (UniProt P27487); experiment: In-vitro DPP-IV assay (cleavage of pNA from Gly-Pro-pNA); assay type: biochemical, porcine kidney or human recombinant; conditions: for IC50: DPP-IV; for % Inhibition: DPP-IV inhibition at 100 nM
Experimental: Protocol for In-Vitro DPP-IV Assay
DPP-IV activity was determined by the rate of cleavage of p-nitro aniline (pNA) from synthetic substrate Glycine-Proline-pNA. The assay was conducted by adding 1 μg of porcine kidney or human recombinant DPP-IV enzyme (Sigma Aldrich, USA) in 100 μL of the assay buffer (100 mM Tris, pH 7.4, 140 mM NaCl, 10 mM KCl, 1% BSA) to 96 well Cellstar flat bottom microtitre plates (Greiner Bio-one, Germany). The reaction was initiated by adding 80 μl of 500 μM substrate Gly-Pro-pNA. The incubation was carried out in the kinetic mode at 30° C. for 30 min. Absorbance was measured using Synergy HT Biotek Multiplate reader at 410 nm. Test compounds and solvent controls were added as 10 μL additions. A standard curve of free p-nitro, aniline (pNA) was generated using 0-2000 μM pNA in the assay buffer. In addition DPP-IV activity was also determined by using Fluorogenic substrate (Gly-Pro-AMC) using human recombinant DPP-IV enzyme (Sigma Aldrich USA).
Test compounds dissolved in DMSO at 9-10 different concentrations were tested in triplicates along with the solvent control and blank samples. % age inhibition was calculated at each concentration with respect to the solvent control (no test compound added). IC50 values were calculated from 3 experiments using the Graph Pad Prism or Sigma Stat software.

| Structure (SMILES) | ED50 (mg/kg p.o.) (C57BL/6J mice) | % Reduction in glucose excursion (C57BL/6J mice) [%] | IC50 (DPP-IV) [µM] | % Inhibition (DPP-IV) |
| --- | --- | --- | --- | --- |
| N[C@@H](CC(=O)N1CC(=O)Nc2cc(F)ccc2C1)Cc1cc(F)c(F)cc1F [Compound 3] | 0.7 | 37 | 0.001 to 0.1 | Y (Y: 50-100% DPP-IV inhibition at 100 nM) |
| N[C@@H](CC(=O)N1CC(=O)Nc2ccccc2C1)Cc1cc(F)c(F)cc1F [Compound 2] | 0.4 | 51 | 0.001 to 0.1 | Y (Y: 50-100% DPP-IV inhibition at 100 nM) |
| N[C@@H](CC(=O)N1CC(=O)N(CC(=O)NC2CC2)c2cc(F)ccc2C1)Cc1cc(F)c(F)cc1F [Compound 38] |  |  | 0.001 to 0.1 | Y (Y: 50-100% DPP-IV inhibition at 100 nM) |
| N[C@@H](CC(=O)N1Cc2ccccc2-n2ccnc2C1)Cc1cc(F)c(F)cc1F [Compound 95] |  |  | 0.001 to 0.1 | Y (Y: 50-100% DPP-IV inhibition at 100 nM) |
| CN(C(=O)CN1C(=O)CN(C(=O)C[C@H](N)Cc2cc(F)c(F)cc2F)Cc2ccccc21)C1CC1 [Compound 39] |  |  |  | Y (Y: 50-100% DPP-IV inhibition at 100 nM) |
